Measurements: patent US20220119354A1, “DIAMINO-SUBSTITUTED PYRIDINES AND PYRIMIDINES AS HERBICIDES” (FMC Corporation, priority 2019, published 2022)

Key:
Format in all cases: in vivo
[1] = system: rice (Oryza sativa); assay: Test B flooded paddy test, rice; details: Flood, 250 g ai/ha, applied to paddy water, 2-leaf stage, visual evaluation after 13 to 15 d
How it was run: (§1)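 Rating: 0 = no effect, 100 = complete control, visual, relative to untreated plants. Conditions: 2-leaf stage, 3 cm flood kept constant, compound put directly into water, 13–15 d greenhouse.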

[2] = system: ragweed (common ragweed, Ambrosia elatior); assay: Test A postemergence, ragweed; details: 0 to 100 scale, 0 no effect, 100 complete control
How it was run: (§2)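 Plants grown in a loam soil and sand blend were treated either preemergence by directed soil spray or postemergence when 2 to 10 cm tall (one- to two-leaf stage). Formulation: non-phytotoxic solvent mixture with surfactant. Greenhouse hold ~10 d, then visual injury assessment on a 0–100 scale.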

[3] = system: ducksalad (Heteranthera limosa); assay: Test B flooded paddy test, ducksalad; details: Flood, 250 g ai/ha, applied to paddy water, 2-leaf stage, visual evaluation after 13 to 15 d
How it was run: as §1

[4] = system: barnyardgrass (Echinochloa crus-galli); assay: Test A preemergence, barnyardgrass; details: 0 to 100 scale, 0 is no effect, 100 is complete control
How it was run: as §2

[5] = system: ryegrass, Italian (Lolium multiflorum); assay: Test A preemergence, Italian ryegrass; details: 0 to 100 scale, 0 is no effect, 100 is complete control
How it was run: as §2

[6] = system: barnyardgrass (Echinochloa crus-galli); assay: Test B flooded paddy test, barnyardgrass; details: Flood, 250 g ai/ha, applied to paddy water, 2-leaf stage, visual evaluation after 13 to 15 d
How it was run: as §1

[7] = system: foxtail, giant (Setaria faberii); assay: Test A postemergence, giant foxtail; details: 0 to 100 scale, 0 no effect, 100 complete control
How it was run: as §2

[8] = system: sedge, umbrella (small-flower umbrella sedge, Cyperus difformis); assay: Test B flooded paddy test, umbrella sedge; details: Flood, 250 g ai/ha, applied to paddy water, 2-leaf stage, visual evaluation after 13 to 15 d
How it was run: as §1

[9] = system: kochia (Kochia scoparia); assay: Test A postemergence, kochia; details: 0 to 100 scale, 0 no effect, 100 complete control
How it was run: as §2

[10] = system: pigweed (Amaranthus retroflexus); assay: Test A preemergence, pigweed; details: 0 to 100 scale, 0 is no effect, 100 is complete control
How it was run: as §2

[11] = system: ragweed (common ragweed, Ambrosia elatior); assay: Test A preemergence, ragweed; details: 0 to 100 scale, 0 is no effect, 100 is complete control
How it was run: as §2

[12] = system: ryegrass, Italian (Lolium multiflorum); assay: Test A postemergence, Italian ryegrass; details: 0 to 100 scale, 0 no effect, 100 complete control
How it was run: as §2

[13] = system: blackgrass (Alopecurus myosuroides); assay: Test A postemergence, blackgrass; details: 0 to 100 scale, 0 no effect, 100 complete control
How it was run: as §2

[14] = system: pigweed (Amaranthus retroflexus); assay: Test A postemergence, pigweed; details: 0 to 100 scale, 0 no effect, 100 complete control
How it was run: as §2

[15] = system: galium (catchweed bedstraw, Galium aparine); assay: Test A postemergence, galium; details: 0 to 100 scale, 0 no effect, 100 complete control
How it was run: as §2

[16] = system: wheat (Triticum aestivum); assay: Test A postemergence, wheat; details: 0 to 100 scale, 0 no effect, 100 complete control
How it was run: as §2

[17] = system: kochia (Kochia scoparia); assay: Test A preemergence, kochia; details: 0 to 100 scale, 0 is no effect, 100 is complete control
How it was run: as §2

[18] = system: foxtail, giant (Setaria faberii); assay: Test A preemergence, giant foxtail; details: 0 to 100 scale, 0 is no effect, 100 is complete control
How it was run: as §2

[19] = system: corn (Zea mays); assay: Test A postemergence, corn; details: 0 to 100 scale, 0 no effect, 100 complete control
How it was run: as §2

[20] = system: barnyardgrass (Echinochloa crus-galli); assay: Test A postemergence, barnyardgrass; details: 0 to 100 scale, 0 no effect, 100 complete control
How it was run: as §2

| SMILES | Plant response rating, Rice (0 to 100 scale, 0 is no effect, 100 is complete control) [1] | Plant response rating, Ragweed ([2]; 125 g ai/ha) | Plant response rating, Ragweed ([2]; 500 g ai/ha) | Plant response rating, Ducksalad (0 to 100 scale, 0 is no effect, 100 is complete control) [3] | Barnyardgrass plant response rating ([4]; 125 g ai/ha) | Barnyardgrass plant response rating ([4]; 500 g ai/ha) | Ryegrass, Italian plant response rating ([5]; 125 g ai/ha) | Ryegrass, Italian plant response rating ([5]; 500 g ai/ha) | Plant response rating, Barnyardgrass (0 to 100 scale, 0 is no effect, 100 is complete control) [6] | Plant response rating, Foxtail, Giant ([7]; 125 g ai/ha) | Plant response rating, Foxtail, Giant ([7]; 500 g ai/ha) | Plant response rating, Sedge, Umbrella (0 to 100 scale, 0 is no effect, 100 is complete control) [8] | Plant response rating, Kochia ([9]; 125 g ai/ha) | Plant response rating, Kochia ([9]; 500 g ai/ha) | Pigweed plant response rating ([10]; 125 g ai/ha) | Pigweed plant response rating ([10]; 500 g ai/ha) | Ragweed plant response rating ([11]; 125 g ai/ha) | Ragweed plant response rating ([11]; 500 g ai/ha) | Plant response rating, Ryegrass, Italian ([12]; 125 g ai/ha) | Plant response rating, Ryegrass, Italian ([12]; 500 g ai/ha) | further results |
| --- | --- | --- | --- | --- | --- | --- | --- | --- | --- | --- | --- | --- | --- | --- | --- | --- | --- | --- | --- | --- | --- |
| C[C@@H](Nc1nc(N)c(C(F)(F)F)c(C(F)(F)F)n1)c1cc2ccccc2s1 [Compound 59] | 0 | 0 | 0 | 0 | 0 | 0 | 0 | 0 | 0 | 0 | 0 | 0 | 50 | 70 | 30 | 80 | 0 | 30 | 0 | 0 | Plant response rating, Blackgrass ([13]; 125 g ai/ha): 0; Plant response rating, Blackgrass ([13]; 500 g ai/ha): 0; Plant response rating, Pigweed ([14]; 125 g ai/ha): 60; Plant response rating, Pigweed ([14]; 500 g ai/ha): 80; Plant response rating, Galium ([15]; 125 g ai/ha): 20; Plant response rating, Galium ([15]; 500 g ai/ha): 20; Plant response rating, Wheat ([16]; 125 g ai/ha): 0; Plant response rating, Wheat ([16]; 500 g ai/ha): 0; Kochia plant response rating ([17]; 125 g ai/ha): 70; Kochia plant response rating ([17]; 500 g ai/ha): 80; Foxtail, Giant plant response rating ([18]; 125 g ai/ha): 0; Foxtail, Giant plant response rating ([18]; 500 g ai/ha): 30; Plant response rating, Corn ([19]; 125 g ai/ha): 0; Plant response rating, Corn ([19]; 500 g ai/ha): 0; Plant response rating, Barnyardgrass ([20]; 125 g ai/ha): 0; Plant response rating, Barnyardgrass ([20]; 500 g ai/ha): 0 |
| C[C@H](Nc1nc(N)c(C(F)(F)F)c(C(F)(F)F)n1)c1cc2ccccc2s1 [Compound 60] | 0 | 20 | 60 | 0 | 0 | 50 | 0 | 20 | 0 | 20 | 50 | 0 | 30 | 100 | 0 | 0 | 0 | 0 | 0 | 0 | Plant response rating, Blackgrass ([13]; 125 g ai/ha): 0; Plant response rating, Blackgrass ([13]; 500 g ai/ha): 20; Plant response rating, Pigweed ([14]; 125 g ai/ha): 50; Plant response rating, Pigweed ([14]; 500 g ai/ha): 90; Plant response rating, Galium ([15]; 125 g ai/ha): 30; Plant response rating, Galium ([15]; 500 g ai/ha): 40; Plant response rating, Wheat ([16]; 125 g ai/ha): 0; Plant response rating, Wheat ([16]; 500 g ai/ha): 0; Kochia plant response rating ([17]; 125 g ai/ha): 0; Kochia plant response rating ([17]; 500 g ai/ha): 0; Foxtail, Giant plant response rating ([18]; 125 g ai/ha): 0; Foxtail, Giant plant response rating ([18]; 500 g ai/ha): 0; Plant response rating, Corn ([19]; 125 g ai/ha): 0; Plant response rating, Corn ([19]; 500 g ai/ha): 0; Plant response rating, Barnyardgrass ([20]; 125 g ai/ha): 0; Plant response rating, Barnyardgrass ([20]; 500 g ai/ha): 50 |
| CC[C@@H](Nc1ncc(C(F)(F)F)c(N)n1)c1cc2ccc(F)cc2o1 [Compound 63] | 0 | 30 | 60 | 75 | 70 | 100 | 40 | 90 | 45 | 20 | 90 | 80 | 80 | 90 | 90 | 100 | 50 | 100 | 0 | 0 | Plant response rating, Blackgrass ([13]; 125 g ai/ha): 0; Plant response rating, Blackgrass ([13]; 500 g ai/ha): 20; Plant response rating, Pigweed ([14]; 125 g ai/ha): 100; Plant response rating, Pigweed ([14]; 500 g ai/ha): 100; Plant response rating, Galium ([15]; 125 g ai/ha): 50; Plant response rating, Galium ([15]; 500 g ai/ha): 90; Plant response rating, Wheat ([16]; 125 g ai/ha): 0; Plant response rating, Wheat ([16]; 500 g ai/ha): 0; Kochia plant response rating ([17]; 125 g ai/ha): 80; Kochia plant response rating ([17]; 500 g ai/ha): 100; Foxtail, Giant plant response rating ([18]; 125 g ai/ha): 60; Foxtail, Giant plant response rating ([18]; 500 g ai/ha): 100; Plant response rating, Corn ([19]; 125 g ai/ha): 0; Plant response rating, Corn ([19]; 500 g ai/ha): 10; Plant response rating, Barnyardgrass ([20]; 125 g ai/ha): 30; Plant response rating, Barnyardgrass ([20]; 500 g ai/ha): 60 |
| CC[C@H](Nc1ncc(C(F)(F)F)c(N)n1)c1cc2ccc(F)cc2o1 [Compound 64] | 0 | 0 | 20 | 0 | 0 | 0 | 0 | 0 | 0 | 0 | 0 | 0 | 0 | 30 | 0 | 0 | 0 | 0 | 0 | 0 | Plant response rating, Blackgrass ([13]; 125 g ai/ha): 0; Plant response rating, Blackgrass ([13]; 500 g ai/ha): 0; Plant response rating, Pigweed ([14]; 125 g ai/ha): 20; Plant response rating, Pigweed ([14]; 500 g ai/ha): 60; Plant response rating, Galium ([15]; 125 g ai/ha): 0; Plant response rating, Galium ([15]; 500 g ai/ha): 30; Plant response rating, Wheat ([16]; 125 g ai/ha): 0; Plant response rating, Wheat ([16]; 500 g ai/ha): 0; Kochia plant response rating ([17]; 125 g ai/ha): 0; Kochia plant response rating ([17]; 500 g ai/ha): 0; Foxtail, Giant plant response rating ([18]; 125 g ai/ha): 0; Foxtail, Giant plant response rating ([18]; 500 g ai/ha): 0; Plant response rating, Corn ([19]; 125 g ai/ha): 0; Plant response rating, Corn ([19]; 500 g ai/ha): 0; Plant response rating, Barnyardgrass ([20]; 125 g ai/ha): 0; Plant response rating, Barnyardgrass ([20]; 500 g ai/ha): 20 |
